Values joined by “and” are separate entries in the source; they are usually repeats but may differ in a detail not shown here. Identical values can stand only once.
What was measured:
RAW 264.7 cells = test: Cytotoxicity on RAW 264.7 cells (CCK-8 method); type: cell-based, mouse
Description: Mouse RAW 264.7 cells were purchased from American Type Culture Collection (Manassas, VA, USA), and cultivated in DMEM culture medium (Hyclone, South Logan, UT, USA) containing 10% fetal bovine serum (Hyclone, South Logan, UT, USA). Cells were collected and counted before use, and inoculated in a 96-well plate (Corning, NY, USA) at 1×10^5/well. […] 20 μl of CCK-8 solution (Dojindo, Kumamoto, Japan) was added at 30 min before the end of the culture. After the cultivation was ended, the absorbance OD value was measured at 450 nm (reference 650 nm) on amicroplate reader (Molecular Devices, Sunnyvale, CA, USA). The toxicity of the compound on RAW 264.7 cells was calculated by dividing the OD value of the test sample by the OD value of the cell control well, which was labeled as the cell survival rate M %.

TNF-α secretion in PBMC = test: Inhibition of LPS-stimulated TNF-α secretion in PBMC (ELISA); type: cell-based; details: Homo sapiens, PBMC; for inhibition at 1 µM / inhibition at 10 µM: read-out: Inhibition rate %
Excerpt: According to the difference in cell density in human blood, PBMC (peripheral blood mononuclear cell, PBMC) was directly separated and purified by gradient centrifugation using lymphocyte separation fluid. The cell type was mononuclear cells in blood, mainly including lymphocytes (T/B), monocytes, macrophages, dendritic cells and other minor cell types, of which lymphocytes account for a large part, which can directly in vitro simulate the blood immune environment.
PBMC cells isolated from human blood were implanted into 96-well plates at 2*10^5/ml; compounds in gradients were added, with at least three replicates for each gradient; After the PBMCs were incubated at 37° C., 5% CO2 for 1 hour, LPS was added (the final concentration was 10 ug/ml) to stimulate PBMC to express TNF-α, and incubated for another 18-20 h at 37° C., 5% C02. The 96-well plate was collected. The background control with no stimulant and stimulation control wells were also set, with a total volume of 200 μl. The culture supernatant was collected by centrifugation, and the expression level of TNF-α in the culture supernatant was detected by ELISA.

[1] = tested on: tumor necrosis factor-α secretion in RAW 264.7 cells; test: Inhibition of LPS-stimulated tumor necrosis factor-α secretion in RAW 264.7 cells (ELISA); type: cell-based, mouse; details: Mus musculus, RAW264.7, 4 h, read-out: Tumor necrosis factor-α inhibition rate/%
Description: After the activation by bacterial lipopolysaccharide (LPS), various inflammatory mediators such as tumor necrosis factor-α will be released; Phosphodiesterase PDE4 is also expressed in macrophages, and the inhibitory activity of the compound on phosphodiesterase PDE4 can be reflected by detecting the secretion of tumor necrosis factor-α.
Under the stimulation of 1 μg/ml LPS (L5886, Sigma, St. Louis, MO, USA), the cells were cultured in a 37° C., 5% CO2 incubator for 4 h. The background control with no stimulant and stimulation control wells were also set, with a total volume of 200 μl. The culture supernatant was collected by centrifugation, and the secretion level of tumor necrosis factor-α in the culture supernatant was detected by enzyme-linked immunosorbent assay. The tumor necrosis factor-α detection kit was purchased from BD Pharmingen (San Diego, CA, USA).

[2] = biological target: Human PDE4D catalytic domain (Homo sapiens (Human), UniProt Q08499); test: Scintillation Proximity Assay (SPA), inhibition of PDE4D catalytic domain activity; type: biochemical; details: Compound concentration: 1 μM; read-out: PDE4D enzyme activity inhibition rate %
Human PDE4D catalytic domain, sequence (Q08499 386-715): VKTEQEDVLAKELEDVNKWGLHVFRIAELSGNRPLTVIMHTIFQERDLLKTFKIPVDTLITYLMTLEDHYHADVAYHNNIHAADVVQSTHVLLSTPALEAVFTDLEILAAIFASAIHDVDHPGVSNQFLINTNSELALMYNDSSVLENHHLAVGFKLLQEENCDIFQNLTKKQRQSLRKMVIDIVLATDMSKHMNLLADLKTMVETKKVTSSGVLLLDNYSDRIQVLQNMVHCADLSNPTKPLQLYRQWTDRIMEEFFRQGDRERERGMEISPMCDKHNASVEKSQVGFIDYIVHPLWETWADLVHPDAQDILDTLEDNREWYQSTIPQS

inhibition at 1 µM [2]	Structure (SMILES)	Cell survival rate/% (RAW 264.7 cells; RAW 264.7, 0.5 μM)	Cell survival rate/% (RAW 264.7 cells; RAW 264.7, 5 μM)	Cell survival rate/% (RAW 264.7 cells; RAW 264.7, 50 μM)	IC50 (TNF-α secretion in PBMC)	inhibition at 1 µM (TNF-α secretion in PBMC)	inhibition at 10 µM (TNF-α secretion in PBMC)	inhibition at 0.5 µM [1]	inhibition at 5 µM [1]	inhibition at 50 µM [1]
	COc1cc2c(cc1OC)[C@@H](CCc1c[nH]c3ccccc13)N(C=O)CC2 [(R)-A1, (R)-1-(2-(1H-indol-3-yl)ethyl)-6,7-dimethoxy-3,4-dihydroisoquinoline-2(1H)-formaldehyde]	102.7% and 135.9%	106.2% and 110.1%	89.3% and 122.5%						
	COc1cc2c(cc1OCC1CC1)[C@H](CCc1c[nH]c3ccccc13)N(C=O)CC2 [(S)-A3, (S)-1-(2-(1H-indol-3-yl)ethyl)-7-(cyclopropyl-methoxy)-6-methoxy-3,4-dihydroisoquinoline-2(1H)-formaldehyde]	110.9%	86.5%	77.3%	2650 nM	31.2%	76.6%	-2.9%	-3.5%	54.6%
	CCOc1cc2c(cc1OC)CCN(C=O)[C@H]2CCc1c[nH]c2ccccc12 [(S)-A4, (S)-1-(2-(1H-indol-3-yl)ethyl)-7-ethoxy-6-methoxy-3,4-dihydroisoquinoline-2(1H)-formaldehyde]	103%	100.8%	98.1%						
	COc1cc2c(cc1OCC1CC1)[C@H](CCc1c[nH]c3cc(C)ccc13)N(C=O)CC2 [(S)-C4, (S)-7-(cyclopropylmethoxy)-6-methoxy-1-(2-(6-methyl-1H-indol-3-yl)ethyl)-3,4-dihydroisoquinoline-2(1H)-formaldehyde]	97.6%	71.8%	77.3%	2120 nM	32%	76.9%	-30.1%	-25.6%	54.5%
	CCOc1cc2c(cc1OC)CCN(C=O)[C@H]2Cc1c[nH]c2ccccc12 [(S)-C10, (S)-1-((1H-indol-3-yl)methyl)-7-ethoxy-6-methoxy-3,4-dihydroisoquinoline-2(1H)-formaldehyde]	89.1%	84.6%	104.1%						
	COc1cc2c(cc1OC)[C@H](Cc1c[nH]c3ccccc13)N(C(=O)CS(C)(=O)=O)CC2 [(S)-C13, (S)-1-(1-((1H-indol-3-yl)methyl)-6,7-dimethoxy-3,4-dihydroisoquinoline-2(1H)-yl)-2-(methanesulfonyl)ethane-1-one]	111.2%	91.4%	101.7%			29.9%	-3%	-13.7%	-37.3%
	CCOc1cc2c(cc1OC)CCN(CCS(C)(=O)=O)[C@H]2Cc1c[nH]c2ccccc12 [(S)-C14, (S)-1-((1H-indol-3-yl)methyl)-7-ethoxy-6-methoxy-2-(2-(methylsulfonyl)ethyl)-1,2,3,4-tetrahydroisoquinoline]	128.3%	98.8%	97.3%		17%	54.5%	2.4%	-2.2%	13.6%
	CCOc1cc2c(cc1OC)CCN(C(=O)CS(C)(=O)=O)[C@H]2Cc1c[nH]c2ccccc12 [(S)-C15, (S)-1-(1-((1H-indol-3-yl)methyl)-7-ethoxy-6-methoxy-3,4-dihydroisoquinoline-2(1H)-yl)-2-(methanesulfonyl)ethane-1-one]	107.3%	110.5%	101.2%			-23.9%	18%	-4.5%	-37.7%
	CCOc1cc2c(cc1OC)CCN(C(=O)COC)[C@H]2Cc1c[nH]c2ccccc12 [(S)-C16, (S)-1-(1-((1H-indol-3-yl)methyl)-7-ethoxy-6-methoxy-3,4-dihydroisoquinoline-2(1H)-yl)-2-methoxyethane-1-one]	123.2%	133.1%	113.1%			1.89%	2.6%	12.7%	10.4%
	CCOc1cc2c(cc1OC)CCN(C=O)[C@H]2Cc1c[nH]c2ccc(C)cc12 [(S)-C17, (S)-7-ethoxy-6-methoxy-1-((5-methyl-1H-indol-3-yl)methyl)-3,4-dihydroisoquinoline-2(1H)-formaldehyde]	101.7%	87.3%	103.9%			18.8%	-32.2%	-33.7%	-13.4%
	CCOc1cc2c(cc1OC)CCN(C=O)[C@H]2Cc1c[nH]c2ccc(OC)cc12 [(S)-C18, (S)-7-ethoxy-6-methoxy-1-((5-methoxy-1H-indol-3-yl)methyl)-3,4-dihydroisoquinoline-2(1H)-formaldehyde]	118%	111.5%	112.9%			39.4%	15.8%	14.5%	38.8%
49.4%	CCOc1cc2c(cc1OC)CCN(S(=O)(=O)c1ccccc1)[C@H]2CCc1c[nH]c2ccc(OC)cc12 [(S)-C47, (S)-7-ethoxy-6-methoxy-1-(2-(5-methoxy-1H-indol-3-yl)ethyl)-2-phenylsulfonyl-1,2,3,4-tetrahydroisoquinoline]									
62%	CCOc1cc2c(cc1OC)CCN(S(=O)(=O)C1CC1)[C@H]2CCc1c[nH]c2ccc(OC)cc12 [(S)-C48, (S)-7-ethoxy-6-methoxy-1-(2-(5-methoxy-1H-indol-3-yl)ethyl)-2-cyclopropylsulfonyl-1,2,3,4-tetrahydroisoquinoline]									
70.8%	CCOc1cc2c(cc1OC)CCN(S(=O)(=O)C1CCCCC1)[C@H]2CCc1c[nH]c2ccc(OC)cc12 [(S)-C49, (S)-7-ethoxy-6-methoxy-1-(2-(5-methoxy-1H-indol-3-yl)ethyl)-2-cyclohexylsulfonyl-1,2,3,4-tetrahydroisoquinoline]									
49.4%	CCOc1cc2c(cc1OC)CCN(S(=O)(=O)c1cccc(F)c1)[C@H]2CCc1c[nH]c2ccc(OC)cc12 [(S)-C50, (S)-7-ethoxy-6-methoxy-1-(2-(5-methoxy-1H-indol-3-yl)ethyl)-2-(3-fluorophenyl)sulfonyl-1,2,3,4-tetrahydroisoquinoline]									
37.9%	CCOc1cc2c(cc1OC)CCN(S(=O)(=O)c1ccc(F)c(F)c1)[C@H]2CCc1c[nH]c2ccc(OC)cc12 [(S)-C51, (S)-7-ethoxy-6-methoxy-1-(2-(5-methoxy-1H-indol-3-yl)ethyl)-2-(3,4-difluorophenyl)sulfonyl-1,2,3,4-tetrahydroisoquinoline]									
36.8%	CCOc1cc2c(cc1OC)CCN(S(=O)(=O)c1ccc(F)cc1F)[C@H]2CCc1c[nH]c2ccc(OC)cc12 [(S)-C52, (S)-7-ethoxy-6-methoxy-1-(2-(5-methoxy-1H-indol-3-yl)ethyl)-2-(2,4-difluorophenyl)sulfonyl-1,2,3,4-tetrahydroisoquinoline]									
56.3%	CCOc1cc2c(cc1OC)CCN(S(=O)(=O)CC)[C@H]2CCc1c[nH]c2ccc(OC)cc12 [(S)-C53, (S)-7-ethoxy-6-methoxy-1-(2-(5-methoxy-1H-indol-3-yl)ethyl)-2-ethylsulfonyl-1,2,3,4-tetrahydroisoquinoline]									
	COc1cc2c(cc1OCC1CC1)C(CCc1c[nH]c3ccccc13)N(C=O)CC2 (stereo not drawn) [Compound A3, 1-(2-(1H-indol-3-yl)ethyl)-7-(cyclopropyl-methoxy)-6-methoxy-3,4-dihydroisoquinoline-2(1H)-formaldehyde]	96.9%	108.2%	94%	5690 nM	0.84%	65.7%	-0.5%	-15.5%	27.3%
	CCOc1cc2c(cc1OC)CCN(C=O)C2CCc1c[nH]c2ccccc12 (stereo not drawn) [Compound A4, 1-(2-(1H-indol-3-yl)ethyl)-7-ethoxy-6-methoxy-3,4-dihydroisoquinoline-2(1H)-formaldehyde]	100.6%	113.4%	95.3%						
	CCOc1cc2c(cc1OC)CCN(C=O)C2Cc1c[nH]c2ccccc12 (stereo not drawn) [Compound C10, 1-((1H-indol-3-yl)methyl)-7-ethoxy-6-methoxy-3,4-dihydroisoquinoline-2(1H)-formaldehyde]	119.5%	111.4%	94%						
	COCC(=O)N1CCc2cc(OC)c(OC)cc2C1Cc1c[nH]c2ccccc12 (stereo not drawn) [Compound C11, 1-(1-((1H-indol-3-yl)methyl)-6,7-dimethoxy-3,4-dihydroisoquinoline-2(1H)-yl)-2-methoxyethane-1-one]	97.9%	91.2%	87.3%		39.9%	50%	-12.7%	-11.9%	20.1%
	COc1cc2c(cc1OC)C(Cc1c[nH]c3ccccc13)N(CCS(C)(=O)=O)CC2 (stereo not drawn) [Compound C12, 1-((1H-indol-3-yl)methyl)-6,7-dimethoxy-2-(2-(methylsulfonyl)ethyl)-1,2,3,4-tetrahydroisoquinoline]	93.6%	115.7%	103.8%		45.4%	52.7%	-15.1%	-7.9%	25.5%

Source: patent US12145923B2, “Tetrahydroisoquinoline compound, preparation method therefor, pharmaceutical composition containing same, and use thereof” (SHANGHAI INSTITUTE OF MATERIA MEDICA, CHINESE ACADEMY OF …, priority 2018, dated 2024)
